Experimental data published in patent publication US9320737B2, “Substituted imidazopyridazines” (Bayer Intellectual Property GmbH, priority 2011, dated 2016).

Target: human full-length MKNK1 (Homo sapiens (Human), UniProt Q9BUB5, T344D)
Assay: MKNK1 kinase assay (MKNK1 TR-FRET assay)
Format: biochemical
Conditions: GST-MKNK1 (T344D), 10 μM ATP, average or median values
Protocol: MKNK1-inhibitory activity of compounds of the present invention was quantified employing the MKNK1 TR-FRET assay as described in the following paragraphs.
As substrate for the kinase reaction the biotinylated peptide biotin-Ahx-[…] (C-terminus in amide form) was used which can be purchased e.g. form the company Biosyntan (Berlin-Buch, Germany).
For the assay […] of a 100 fold concentrated solution of the test compound in DMSO was pipetted into a black low volume 384 well microtiter plate (Greiner Bio-One, Frickenhausen, Germany), 2 μL of a solution of MKNK1 in aqueous assay buffer [50 mM HEPES pH 7.5, 5 mM magnesium chloride, 1.0 mM dithiothreitol, 0.005% (v/v) Nonidet-P40 (Sigma)] was added and the mixture was incubated for 15 min at 22° C. to allow pre-binding of the test compounds to the enzyme before the start of the kinase reaction. Then the kinase reaction was started by the addition of 3 μL of a solution of adenosine-tri-phosphate (ATP, 16.7 μM=>final conc. in the 5 μL assay volume is 10 μM) and substrate (0.1 μM=>final conc. in the 5 μL assay volume is 0.06 μM) in assay buffer and the resulting mixture was incubated for a reaction time of 45 min at 22° C. The concentration of MKNK1 was adjusted depending of the activity of the enzyme lot and was chosen appropriate to have the assay in the linear range, typical concentrations were in the range of 0.05 μg/ml. The reaction was stopped by the addition of 5 μL of a solution of TR-FRET detection reagents (5 nM streptavidine-XL665 [Cisbio Bioassays, Codolet, France] and 1 nM anti-ribosomal protein S6 (pSer236)-antibody from Invitrogen [#44921G] and 1 nM LANCE EU-W1024 labeled ProteinG [Perkin-Elmer, product no. AD0071]) in an aqueous EDTA-solution (100 mM EDTA, 0.1% (w/v) bovine serum albumin in 50 mM HEPES pH 7.5).
The resulting mixture was incubated for 1 h at 22° C. to allow the formation of complex between the phosphorylated biotinylated peptide and the detection reagents. Subsequently the amount of phosphorylated substrate was evaluated by measurement of the resonance energy transfer from the Eu-chelate to the streptavidine-XL. Therefore, the fluorescence emissions at 620 nm and 665 nm after excitation at 350 nm were measured in a TR-FRET reader, e.g. a Rubystar (BMG Labtechnologies, Offenburg, Germany) or a Viewlux (Perkin-Elmer). The ratio of the emissions at 665 nm and at 622 nm was taken as the measure for the amount of phosphorylated substrate.

human full-length MKNK1, sequence (Q9BUB5 other isoform, or with tags, fused parts or gaps T344D): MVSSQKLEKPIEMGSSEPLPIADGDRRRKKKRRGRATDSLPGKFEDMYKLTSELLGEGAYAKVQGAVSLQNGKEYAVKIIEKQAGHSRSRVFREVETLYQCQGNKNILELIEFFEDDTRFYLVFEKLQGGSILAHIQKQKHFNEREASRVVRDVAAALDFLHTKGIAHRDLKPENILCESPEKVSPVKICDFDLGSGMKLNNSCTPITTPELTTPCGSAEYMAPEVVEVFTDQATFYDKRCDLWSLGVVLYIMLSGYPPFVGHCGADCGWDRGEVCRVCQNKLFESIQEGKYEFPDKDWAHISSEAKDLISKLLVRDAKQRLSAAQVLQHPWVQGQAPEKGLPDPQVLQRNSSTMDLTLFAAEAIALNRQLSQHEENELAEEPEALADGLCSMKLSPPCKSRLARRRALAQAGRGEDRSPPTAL

Going from `CS(=O)(CCOc1ccc2ncc(-c3cc4ccccc4o3)n2n1)=NC(=O)C(F)(F)F` (stereo not shown) [Example IV.7, N-[(2-{[3-(1-Benzofuran-2-yl)imidazo[1,2-b]pyridazin-6-yl]oxy}ethyl)(methyl)oxido-lambda^6-sulfanylidene]-2,2,2-trifluoroacetamide] to `CS(=O)(CCCCOc1ccc2ncc(-c3cc4ccccc4o3)n2n1)=NC(=O)C(F)(F)F` (stereo not shown) [Example IV.5, N-[(4-{[3-(1-Benzofuran-2-yl)imidazo[1,2-b]pyridazin-6-yl]oxy}butyl)(methyl)oxido-lambda^6-sulfanylidene]-2,2,2-trifluoroacetamide], the IC50 falls from 47 nM to 15 nM (3.1-fold). The second is the more potent here.

Compared with `Cc1c(-c2cnc3ccc(OCCCS(C)(=O)=O)nn23)oc2ccccc12` [Example III.7, 3-(3-Methyl-1-benzofuran-2-yl)-6-[3-(methylsulfonyl)propoxy]imidazo[1,2-b]pyridazine], `CS(=O)(=O)CCCOc1ccc2ncc(-c3cc4c(F)cccc4o3)n2n1` [Example III.9, 3-(4-Fluoro-1-benzofuran-2-yl)-6-[3-(methylsulfonyl)propoxy]imidazo[1,2-b]pyridazine] is 3.6-fold lower in IC50: 61 nM for the first, 17 nM for the second. The second is the more potent here.

First: COc1cccc2oc(-c3cnc4ccc(OCCC[S+](C)[O-])nn34)cc12 (stereo not shown) [Example II.1, 3-(4-Methoxy-1-benzofuran-2-yl)-6-[3-(methylsulfinyl)propoxy]imidazo[1,2-b]pyridazine]
Second: COc1cccc2oc(-c3cnc4ccc(OCCCSC)nn34)cc12 [Example I.1, 3-(4-Methoxy-1-benzofuran-2-yl)-6-[3-(methylsulfanyl)propoxy]imidazo[1,2-b]-pyridazine]
The IC50 of the first is 10-fold lower: 2 nM for the first, 21 nM for the second.

`COc1nccc2oc(-c3cnc4ccc(OCCCS(C)(=N)=O)nn34)cc12` (stereo not shown) [Example IV.10, 3-(4-Methoxyfuro[3,2-c]pyridin-2-yl)-6-[3-(S-methylsulfonimidoyl)propoxy]-imidazo[1,2-b]pyridazine] and `COc1nccc2oc(-c3cnc4ccc(OCCCS(C)(=O)=O)nn34)cc12` [Example III.12, 3-(4-Methoxyfuro[3,2-c]pyridin-2-yl)-6-[3-(methylsulfonyl)propoxy]-imidazo-[1,2-b]pyridazine] are within 1.5-fold of each other in IC50: 9 nM for the first, 12 nM for the second.

Going from `COc1cccc2oc(-c3cnc4ccc(OCCCS(C)(=O)=O)nn34)cc12` [Example III.3, 3-(4-Methoxy-1-benzofuran-2-yl)-6-[3-(methylsulfonyl)propoxy]imidazo[1,2-b]pyridazine] to `COc1cccc2oc(-c3cnc4ccc(OCCCS(C)(=O)=NC(=O)C(F)(F)F)nn34)cc12` (stereo not shown) [Example IV.1, 2,2,2-Trifluoro-N-[(3-{[3-(4-methoxy-1-benzofuran-2-yl)imidazo[1,2-b]pyridazin-6-yl]oxy}propyl)(methyl)oxido-lambda^6-sulfanylidene]acetamide], the IC50 rises from 2 nM to 9 nM (4.5-fold). The first is the more potent here.

`CS(=O)(=O)CCCOc1ccc2ncc(-c3cc4ccccc4o3)n2n1` [Example III.1, 3-(1-Benzofuran-2-yl)-6-[3-(methylsulfonyl)propoxy]imidazo[1,2-b]pyridazine] and `CS(=N)(=O)CCCOc1ccc2ncc(-c3cc4ccccc4o3)n2n1` (stereo not shown) [Example IV.4, 3-(1-Benzofuran-2-yl)-6-[3-(S-methylsulfonimidoyl)propoxy]imidazo[1,2-b]pyridazine] are within 1.5-fold of each other in IC50: 5 nM for the first, 4 nM for the second.

First: CS(=O)(CCCOc1ccc2ncc(-c3cc4ccccc4o3)n2n1)=NC#N (stereo not shown) [Example IV.8, [(3-{[3-(1-Benzofuran-2-yl)imidazo[1,2-b]pyridazin-6-yl]oxy}propyl)(methyl)oxido-lambda^6-sulfanylidene]cyanamide]
Second: CSCCCOc1ccc2ncc(-c3cc4ccccc4o3)n2n1 [Example I.2, 3-(1-Benzofuran-2-yl)-6-[3-(methylsulfanyl)propoxy]imidazo[1,2-b]pyridazine]
The IC50 of the first is 1.6-fold lower: 7 nM for the first, 11 nM for the second. The first is the more potent here.

First: CS(=O)(=O)CCCOc1ccc2ncc(-c3cc4cnccc4o3)n2n1 [III.13, 3-(Furo[3,2-c]pyridin-2-yl)-6-[3-(methylsulfonyl)propoxy]imidazo[1,2-b]-pyridazine]
Second: CS(=O)(=O)CCCOc1ccc2ncc(-c3cc4cc(F)ccc4o3)n2n1 [Example III.4, 3-(5-Fluoro-1-benzofuran-2-yl)-6-[3-(methylsulfonyl)propoxy]imidazo[1,2-b]pyridazine]
The IC50 of the first is 4-fold higher: 28 nM for the first, 7 nM for the second.

Going from `CS(=O)(=O)CCCOc1nn2c(-c3cc4ccccc4o3)cnc2cc1-c1ccccc1` [Example III.11, 3-(1-Benzofuran-2-yl)-6-[3-(methylsulfonyl)propoxy]-7-phenylimidazo[1,2-b]-pyridazine] to `Cc1cc2ncc(-c3cc4ccccc4o3)n2nc1OCCCS(C)(=O)=O` [Example III.10, 3-(1-Benzofuran-2-yl)-7-methyl-6-[3-(methylsulfonyl)propoxy]imidazo[1,2-b]-pyridazine], the IC50 falls from 17 nM to 11 nM (1.5-fold).

Going from `CS(=O)(=O)CCCOc1ccc2ncc(-c3cc4cc(Cl)ccc4o3)n2n1` [Example III.5, 3-(5-Chloro-1-benzofuran-2-yl)-6-[3-(methylsulfonyl)propoxy]imidazo[1,2-b]pyridazine] to `COc1ccc2oc(-c3cnc4ccc(OCCCS(C)(=O)=O)nn34)cc2c1` [Example III.2, 3-(5-Methoxy-1-benzofuran-2-yl)-6-[3-(methylsulfonyl)propoxy]imidazo[1,2-b]pyridazine], the IC50 falls from 15 nM to 5 nM (3-fold). The second is the more potent here.

`C[S+]([O-])CCCCOc1ccc2ncc(-c3cc4ccccc4o3)n2n1` (stereo not shown) [Example II.3, 3-(1-Benzofuran-2-yl)-6-[4-(methylsulfinyl)butoxy]imidazo[1,2-b]pyridazine] and `C[S+]([O-])CCCOc1ccc2ncc(-c3cc4ccccc4o3)n2n1` (stereo not shown) [Example II.2, 3-(1-Benzofuran-2-yl)-6-[3-(methylsulfinyl)propoxy]imidazo[1,2-b]pyridazine] are within 1.5-fold of each other in IC50: 5 nM for the first, 4 nM for the second.

`CS(=O)(=O)CCCOc1ccc2ncc(-c3cc4ncccc4o3)n2n1` [Example III.14, 3-(Furo[3,2-b]pyridin-2-yl)-6-[3-(methylsulfonyl)propoxy]imidazo[1,2-b]pyridazine] and `CS(=O)(=O)CCCOc1ccc2ncc(-c3cc4cccc(F)c4o3)n2n1` [Example III.6, 3-(7-Fluoro-1-benzofuran-2-yl)-6-[3-(methylsulfonyl)propoxy]imidazo[1,2-b]pyridazine] are within 1.5-fold of each other in IC50: 60 nM for the first, 48 nM for the second.

First: Cc1cccc2cc(-c3cnc4ccc(OCCCS(C)(=O)=O)nn34)oc12 [Example III.8, 3-(7-Methyl-1-benzofuran-2-yl)-6-[3-(methylsulfonyl)propoxy]imidazo[1,2-b]pyridazine]
Second: CSCCOc1ccc2ncc(-c3cc4ccccc4o3)n2n1 [Example I.4, 3-(1-Benzofuran-2-yl)-6-[2-(methylsulfanyl)ethoxy]imidazo[1,2-b]pyridazine]
The IC50 of the first is 4.4-fold higher: 70 nM for the first, 16 nM for the second.

First: COc1nccc2oc(-c3cnc4ccc(OCCCS(C)(=O)=NC#N)nn34)cc12 (stereo not shown) [Example IV.9, [(3-{[3-(4-Methoxyfuro[3,2-c]pyridin-2-yl)imidazo[1,2-b]pyridazin-6-yl]oxy}propyl)(methyl)oxido-lambda^6-sulfanylidene]cyanamide]
Second: CSCCCCOc1ccc2ncc(-c3cc4ccccc4o3)n2n1 [Example I.3, 3-(1-Benzofuran-2-yl)-6-[4-(methylsulfanyl)butoxy]imidazo[1,2-b]pyridazine]
The IC50 of the first is 3-fold lower: 9 nM for the first, 27 nM for the second.
